Consider 28 compounds from ChEMBL document CHEMBL4888484, “Replenishing the malaria drug discovery pipeline: Screening and hit evaluation of the MMV Hit Generation Library 1 (HGL1) against asexual blood stage Plasmodium falciparum ,using a nano luciferase reporter read-out” (2022).

Data set [1] has as its system Plasmodium falciparum. Put plainly: Hit confirmation in dose-response curve in NF54 nanoGlo assay, at 72h. The format is functional, organism-based, Erythrocyte. Details: timepoint 72 hour. The conditions noted are these: Plasmodium falciparum, NF54, Erythrocyte, 72 h.
Data set [2] has as its system Plasmodium falciparum. Put plainly: Hit confirmation in dose-response curve in NF54 pLDH assay, at 72h. The conditions noted are these: NF54, Erythrocyte. Details: timepoint 72 hour. In kind it is functional, organism-based.
In data set [3] the test system is Plasmodium falciparum. Put plainly: Hit confirmation in dose-response curve in Dd2 pLDH assay, at 72h. The format is functional, organism-based. Details: timepoint 72 hour. The following applies: Dd2, Erythrocyte.
For data set [4], the system named is Plasmodium falciparum. Put plainly: Hit confirmation in dose-response curve in NF54 nanoGlo assay, at 12h. In kind it is functional, organism-based, Erythrocyte. Details: timepoint 12 hour. The following applies: Plasmodium falciparum, NF54, Erythrocyte, 12 h.
The nature of data set [5]: Hit confirmation in dose-response curve in HepG2 cytotoxicity assay, at 72h. The format is toxicity, cell-based. Details: timepoint 72 hour. The conditions noted are these: human, HepG2 cells.

Molecules are shown by their SMILES. Where only a bound is given, the exact number is not on record here.

Regarding `c1ccc(-c2noc(-c3ccc(NC4CCCCC4)nn3)n2)cc1`, the IC50 – broadly, the midpoint of a concentration-inhibition curve – with Plasmodium falciparum [1] is 3.09 µM; with Plasmodium falciparum [2], 7.94 µM; in the data set on Plasmodium falciparum [3] it was 7.24 µM; in the data set on Plasmodium falciparum [4] it was above 10 µM. Besides, the IC50 at 72 h in data set [5] was above 10 µM.
In the case of `COc1ccccc1-n1c(=O)n(C2CCCC2)c(=O)c2c1ncn2Cc1ccccc1Cl`, the IC50 with Plasmodium falciparum [1] is 3.02 µM; in the data set on Plasmodium falciparum [2], 10 µM; in the data set on Plasmodium falciparum [3] it was 9.55 µM; in the data set on Plasmodium falciparum [4], above 10 µM. In data set [5], the IC50 at 72 h was above 10 µM.
For the compound `Fc1ccccc1N1CCN(C2CCN(Cc3c[nH]c4ccccc34)CC2)CC1`, the IC50 in the data set with Plasmodium falciparum [1] is 1.82 µM; in the data set with Plasmodium falciparum [2], 4.07 µM; in the data set on Plasmodium falciparum [3], 3.24 µM; with Plasmodium falciparum [4], above 10 µM. This compound also had an IC50 at 72 h in data set [5] above 10 µM.
In the case of `COc1ccc([C@H](NC(=O)CCc2ccccc2)c2c(O)ccc3ccccc23)cc1`, the IC50 in the data set with Plasmodium falciparum [1] stood at 2.45 µM; in the data set with Plasmodium falciparum [2], 9.33 µM; in the data set on Plasmodium falciparum [3] it was 5.62 µM; in the data set with Plasmodium falciparum [4], 1.48 µM. Further, the IC50 at 72 h in data set [5] was above 10 µM.
Taken in the same sequence, the figures for `Cc1ccc(NC(=O)Nc2cc(C)ccc2N2CCCN(Cc3ccc(F)cc3)C2=O)cc1` were 5.5 µM, 14.1 µM, above 10 µM, above 10 µM and above 10 µM.
Turning to `COc1ccc2c(c1)[n+](CC(=O)c1ccc(-c3ccc(Br)cc3)cc1)c(CO)n2C`, the IC50 with Plasmodium falciparum [1] was 1.91 µM; in the data set on Plasmodium falciparum [2], 5.62 µM; with Plasmodium falciparum [3], 5.37 µM; in the data set with Plasmodium falciparum [4], above 10 µM. This compound showed an IC50 at 72 h in data set [5] above 10 µM.
In the case of `CC(C)c1cc(=O)[nH]c(-n2nc(C3CC3)cc2NC(=O)Cc2ccc(Cl)cc2)n1`, the IC50 with Plasmodium falciparum [1] is 1.91 µM; in the data set on Plasmodium falciparum [2], 7.76 µM; with Plasmodium falciparum [3] it was 3.89 µM; in the data set with Plasmodium falciparum [4] it was above 10 µM. In data set [5], the IC50 at 72 h is above 10 µM.
`O=C(N[C@H]1CC[C@@H]2CCC[C@@H]21)c1c[nH]c(=O)c(Cl)c1`: the half-maximal inhibitory concentration (IC50) in the data set with Plasmodium falciparum [1] is 2.19 µM; in the data set on Plasmodium falciparum [2], 3.98 µM; in the data set with Plasmodium falciparum [3], 5.13 µM; with Plasmodium falciparum [4], 2.45 µM. Further, in data set [5], the IC50 at 72 h was above 10 µM.
Turning to `Cc1oc(-c2ccn[nH]2)cc1S(=O)(=O)Nc1cccc(Cl)c1`, the IC50 in the data set with Plasmodium falciparum [1] is 1.48 µM; in the data set with Plasmodium falciparum [2] it was 7.76 µM; in the data set with Plasmodium falciparum [3] it was above 10 µM; in the data set with Plasmodium falciparum [4], 0.933 µM. In addition, in data set [5], the IC50 at 72 h is above 10 µM.
For `CCCn1ccnc1-c1cn(Cc2cc3ccccc3[nH]2)nn1`, the half-inhibitory concentration (IC50) in the data set on Plasmodium falciparum [1] is 2.82 µM; with Plasmodium falciparum [2], 5.37 µM; in the data set on Plasmodium falciparum [3], 4.79 µM; with Plasmodium falciparum [4] it was above 10 µM. Further, the IC50 at 72 h in data set [5] is above 10 µM.
On to `COc1ccc(CCNC(=O)c2cc3c(=O)[nH]c(C)cn3n2)cc1OC`, for which the IC50 is 1.45 µM in the data set with Plasmodium falciparum [1], above 10 µM in the data set on Plasmodium falciparum [2], above 10 µM in the data set with Plasmodium falciparum [3] and 0.457 µM in the data set on Plasmodium falciparum [4]. Moreover, the IC50 at 72 h in data set [5] was above 10 µM.
As to `Cc1noc(NCc2ccc(Cl)cc2)n1`, the IC50 in the data set on Plasmodium falciparum [1] is 3.8 µM; in the data set on Plasmodium falciparum [2] it was 8.13 µM; in the data set with Plasmodium falciparum [3], 2.88 µM; in the data set with Plasmodium falciparum [4], above 10 µM. For the same compound, in data set [5], the IC50 at 72 h was above 10 µM.
Take `CCC(CC)C(=O)Nc1cc(C2CC2)nn1-c1nc(-c2ccccc2)cc(=O)[nH]1`: the IC50 with Plasmodium falciparum [1] is 2.14 µM; with Plasmodium falciparum [2], 6.61 µM; in the data set with Plasmodium falciparum [3] it was 3.55 µM; in the data set on Plasmodium falciparum [4], above 10 µM. In data set [5], this compound came in with a half-inhibitory concentration (IC50) at 72 h above 10 µM.
On to `CCCN1C(=O)c2ccccc2N2C(=O)CC[C@@]12C(=O)Nc1ccccc1`, for which the IC50 was determined as 1.1 µM with Plasmodium falciparum [1], 4.17 µM in the data set with Plasmodium falciparum [2], 2.88 µM in the data set on Plasmodium falciparum [3] and 1.66 µM with Plasmodium falciparum [4]. Besides, the 50% inhibitory concentration (IC50) at 72 h in data set [5] is above 10 µM.
As for `O[C@H]1CNCC[C@@H]1Nc1cc(-c2ccccc2)nc2ccccc12`, the 50% inhibitory concentration (IC50) was found to be 2 µM in the data set on Plasmodium falciparum [1], 3.8 µM in the data set with Plasmodium falciparum [2], 1.78 µM with Plasmodium falciparum [3] and 8.51 µM in the data set with Plasmodium falciparum [4]. The same compound returned an IC50 at 72 h in data set [5] above 10 µM.
On to `CNCCc1c(-c2ccccc2)[nH]n(-c2ccccc2)c1=O`, for which the IC50 in the data set with Plasmodium falciparum [1] stood at 1.7 µM; in the data set on Plasmodium falciparum [2], 2.82 µM; in the data set on Plasmodium falciparum [3] it was 3.16 µM; with Plasmodium falciparum [4] it was 2.75 µM. For the same compound, in data set [5], the IC50 at 72 h was above 10 µM.
Take `CN1CCN(Cc2cc3cc4c(cc3nc2-c2ccc(Cl)cc2)OCO4)CC1=O`: the IC50 with Plasmodium falciparum [1] is 4.07 µM; in the data set with Plasmodium falciparum [2], above 10 µM; in the data set on Plasmodium falciparum [3], above 10 µM; with Plasmodium falciparum [4], 4.47 µM. Besides, in data set [5], the IC50 at 72 h is above 10 µM.
As to `Cc1cc(C(=O)N[C@@H](C)c2nc(-c3cccnc3)cs2)cc(O)n1`, the IC50 with Plasmodium falciparum [1] came to 1.74 µM; in the data set with Plasmodium falciparum [2], 2.24 µM; in the data set on Plasmodium falciparum [3], 2.4 µM; in the data set with Plasmodium falciparum [4] it was 3.39 µM. For the same compound, the IC50 at 72 h in data set [5] was above 10 µM.
For `COc1ccc(CCNC(=O)c2cnn3c4c(cnc23)C[C@@H](C)CC4)cc1OC` the same measures were 3.02 µM, above 10 µM, above 10 µM, 1.26 µM and above 10 µM.
Regarding `Oc1ccccc1CNc1cccc2cccnc12`, the IC50 with Plasmodium falciparum [1] was 4.37 µM; with Plasmodium falciparum [2], above 10 µM; with Plasmodium falciparum [3], 8.13 µM; in the data set on Plasmodium falciparum [4], 8.51 µM. In data set [5], this compound returned an IC50 at 72 h above 10 µM.
Regarding `COc1ccc(C2=CN(CC(=O)c3ccc(Cl)cc3)C3=CCCCCN23)cc1`, the concentration for half-maximal inhibition (IC50) was 2.95 µM in the data set on Plasmodium falciparum [1], 2.95 µM in the data set on Plasmodium falciparum [2], 3.16 µM in the data set with Plasmodium falciparum [3] and above 10 µM in the data set with Plasmodium falciparum [4]. In addition, the half-maximal inhibitory concentration (IC50) at 72 h in data set [5] is above 10 µM.
In the case of `CCn1cc(-c2nc(-c3ccccc3C)no2)c(=O)c2cc(F)c(N3CCCCC3)cc21`, the IC50 was 6.03 µM in the data set on Plasmodium falciparum [1], 11 µM in the data set on Plasmodium falciparum [2], 10.2 µM in the data set with Plasmodium falciparum [3] and above 10 µM with Plasmodium falciparum [4]. This compound also had an IC50 at 72 h in data set [5] above 10 µM.
As for `Cc1cc(=O)[nH]c(-n2nc(C3CC3)cc2NC(=O)C(c2ccccc2)c2ccccc2)n1`, the IC50 in the data set on Plasmodium falciparum [1] worked out at 0.955 µM; in the data set on Plasmodium falciparum [2] it was 2.14 µM; in the data set on Plasmodium falciparum [3] it was 3.09 µM; in the data set with Plasmodium falciparum [4] it was 8.32 µM. Moreover, in data set [5], 7.59 µM corresponded to half-maximal inhibition (IC50 at 72 h).
For the compound `O=C(c1ccccc1)c1ccc(O)c(CN2CCCN(c3ccc(C(F)(F)F)cn3)CC2)c1O`, the half-inhibitory concentration (IC50) in the data set with Plasmodium falciparum [1] was determined as 1.82 µM; in the data set on Plasmodium falciparum [2] it was 3.72 µM; in the data set on Plasmodium falciparum [3] it was 3.09 µM; in the data set on Plasmodium falciparum [4], 2.82 µM. Moreover, the half-maximal inhibitory concentration (IC50) at 72 h in data set [5] is above 10 µM.
Take `CC(C)c1ccc(Oc2cnn(-c3cccc(Cl)c3)c(=O)c2Nc2cccc(C(=O)NC3CC3)c2)cc1`: the IC50 is 3.02 µM in the data set on Plasmodium falciparum [1], 10 µM in the data set with Plasmodium falciparum [2], 6.61 µM with Plasmodium falciparum [3] and above 10 µM with Plasmodium falciparum [4]. In data set [5], this compound yielded an IC50 at 72 h above 10 µM.
As for `CC1(C)CCC(Nc2ccc(C(N)=O)nn2)CC1`, the IC50 in the data set with Plasmodium falciparum [1] is 0.49 µM; in the data set with Plasmodium falciparum [2] it was 0.0871 µM; in the data set on Plasmodium falciparum [3], above 10 µM; with Plasmodium falciparum [4], above 10 µM. The compound also came in with a concentration for half-maximal inhibition (IC50) at 72 h in data set [5] above 10 µM.
Consider `COc1ccc2cccc(NC(=O)c3cc(-c4cc(OC)c(OC)c(OC)c4)n[nH]3)c2n1`, for which the IC50 in the data set with Plasmodium falciparum [1] was 2.19 µM; in the data set on Plasmodium falciparum [2], 9.77 µM; in the data set with Plasmodium falciparum [3] it was above 10 µM; in the data set on Plasmodium falciparum [4], 9.33 µM. The IC50 at 72 h in data set [5] is above 10 µM.
As to `CCOc1cc(-c2cc(-c3ccccc3O)nc3ccc4ccccc4c23)cc(Br)c1O`, the half-inhibitory concentration (IC50) in the data set on Plasmodium falciparum [1] is 1.62 µM; in the data set on Plasmodium falciparum [2] it was 2.82 µM; in the data set with Plasmodium falciparum [3], 2.63 µM; in the data set with Plasmodium falciparum [4], 3.63 µM. Also, the IC50 at 72 h in data set [5] is above 10 µM.
